Laboratory results published in ChEMBL document CHEMBL1201862, “PubChem BioAssay data set” (2004).
Active and inactive are the calls of the source.

Assays:
[1] = target: Ubiquitin carboxyl-terminal hydrolase BAP1 (Homo sapiens, UniProt Q92560); test: inhibition of BAP1 ubiquitin hydrolase activity – biochemical, dose response (AID 714); type: functional
Bcl-2-related protein A1 [2] = target: T1, Bcl-2-related protein A1 (Mus musculus, UniProt Q07440); test: small-molecule antagonists of Bfl-1/BH3 interaction – biochemical, TR-FRET, mouse Bfl-1, confirmation (AID 621);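 also: TR-FRET binding of GST-Bfl-1 to FITC-labelled Bid peptide via terbium antibody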
T1 sequence (Q07440 whole entry): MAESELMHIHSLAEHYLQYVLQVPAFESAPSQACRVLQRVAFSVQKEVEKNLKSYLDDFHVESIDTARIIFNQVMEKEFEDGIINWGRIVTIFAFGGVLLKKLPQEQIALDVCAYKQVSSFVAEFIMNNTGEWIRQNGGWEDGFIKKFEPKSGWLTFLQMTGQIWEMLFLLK

Bcl-2-related protein A1 [3] = target: T1, Bcl-2-related protein A1; test: displacement of Bid BH3 peptide from Bfl-1 – biochemical, fluorescence polarization, FITC-Bid, mouse, primary screen (AID 432)
NADPH oxidase 1 = target: T2, NADPH oxidase 1 (Homo sapiens, UniProt Q9Y5S8); test: Late-stage luminescence-based cell-based dose response assay to identify inhibitors of NADPH oxidase 1 (NOX1): Purchased analogs 2.; type: functional
T2 sequence (Q9Y5S8 whole entry): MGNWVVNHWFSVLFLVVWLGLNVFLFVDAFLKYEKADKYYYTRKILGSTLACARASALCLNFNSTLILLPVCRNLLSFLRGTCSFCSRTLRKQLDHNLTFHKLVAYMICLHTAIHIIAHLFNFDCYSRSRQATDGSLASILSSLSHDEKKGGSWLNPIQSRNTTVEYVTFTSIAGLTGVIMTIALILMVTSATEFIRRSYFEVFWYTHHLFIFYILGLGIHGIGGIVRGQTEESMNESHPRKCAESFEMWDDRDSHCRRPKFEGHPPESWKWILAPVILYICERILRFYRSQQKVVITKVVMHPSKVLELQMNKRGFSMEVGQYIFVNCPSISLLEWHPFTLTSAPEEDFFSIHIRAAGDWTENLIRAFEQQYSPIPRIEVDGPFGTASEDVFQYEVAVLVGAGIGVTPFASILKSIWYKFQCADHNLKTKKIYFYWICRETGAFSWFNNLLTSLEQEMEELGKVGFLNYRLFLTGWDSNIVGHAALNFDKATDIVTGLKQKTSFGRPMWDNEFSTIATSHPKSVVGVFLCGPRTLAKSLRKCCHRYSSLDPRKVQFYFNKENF

[4] = Luminescent dose response cell-based high throughput screening assay for inhibitors of the Janus kinase 2 mutant JAK2V617F. [Related pubchem assays: 1446 (Primary screen.), 1521 (Confirmation assay.), 1486 (Counter screen.)]; type: functional
[5] = target: 5-hydroxytryptamine receptor 1A (Homo sapiens, UniProt P08908); type: functional
Estrogen receptor beta [6] = target: T3, Estrogen receptor beta (Homo sapiens, UniProt Q92731);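 also: recombinant ER-beta bound to coactivator SRC1 peptide in presence of estradiol agonist; inhibitors block coactivator peptide binding and lower the FRET signal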
[7] = target: T4, Corticotropin-releasing factor receptor 2/Corticotropin-releasing factor-binding protein (Homo sapiens, UniProt P24387+Q13324); test: activators of CRF receptor 2 with binding protein – uHTS hits, confirmation (AID 602473); type: functional; settings: read-out: EC50_Mean
T4 sequence (Q13324 whole entry): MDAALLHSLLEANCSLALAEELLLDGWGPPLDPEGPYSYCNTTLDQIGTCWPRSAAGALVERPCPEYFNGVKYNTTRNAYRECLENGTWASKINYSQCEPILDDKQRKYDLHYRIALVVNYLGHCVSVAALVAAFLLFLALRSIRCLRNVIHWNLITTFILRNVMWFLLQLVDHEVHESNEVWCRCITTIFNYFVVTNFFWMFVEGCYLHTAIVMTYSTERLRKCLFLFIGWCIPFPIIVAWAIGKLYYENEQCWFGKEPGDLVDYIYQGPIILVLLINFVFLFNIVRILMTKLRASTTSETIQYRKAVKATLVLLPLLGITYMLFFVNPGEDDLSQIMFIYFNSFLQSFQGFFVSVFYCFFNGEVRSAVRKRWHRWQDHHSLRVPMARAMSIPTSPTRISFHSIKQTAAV
T4 sequence (P24387 whole entry): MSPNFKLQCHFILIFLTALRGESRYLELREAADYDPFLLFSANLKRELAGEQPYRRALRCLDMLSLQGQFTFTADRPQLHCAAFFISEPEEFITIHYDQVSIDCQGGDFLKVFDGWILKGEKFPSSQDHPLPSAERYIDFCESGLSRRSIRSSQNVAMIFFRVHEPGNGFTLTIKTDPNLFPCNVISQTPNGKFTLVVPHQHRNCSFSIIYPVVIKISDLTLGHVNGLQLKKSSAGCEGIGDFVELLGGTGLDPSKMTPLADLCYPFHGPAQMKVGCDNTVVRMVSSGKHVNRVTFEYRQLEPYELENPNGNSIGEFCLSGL

Estrogen receptor beta [8] = target: T3, Estrogen receptor beta; test: blockers of SRC-3 recruitment to ERβ – biochemical, ELISA, streptavidin-HRP readout, orthogonal assay, confirmation (AID 1060)
[9] = target: T5, Carboxy-terminal domain RNA polymerase II polypeptide A small phosphatase 1 (Homo sapiens, UniProt Q9GZU7); test: CTDSP1 inhibitors, concentration-response, biochemical, absorbance readout, ultra-high-throughput screen actives (AID 540297); type: functional
T5 sequence (Q9GZU7 whole entry): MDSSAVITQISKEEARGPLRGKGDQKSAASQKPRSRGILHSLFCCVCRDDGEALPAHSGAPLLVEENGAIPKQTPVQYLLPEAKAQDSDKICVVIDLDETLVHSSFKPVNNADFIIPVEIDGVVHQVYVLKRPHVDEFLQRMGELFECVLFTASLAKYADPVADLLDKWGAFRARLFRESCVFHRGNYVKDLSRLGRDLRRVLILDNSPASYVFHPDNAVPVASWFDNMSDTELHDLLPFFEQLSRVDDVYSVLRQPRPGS

[10] = target: T6, RNA-binding protein pos-1 (Caenorhabditis elegans, UniProt G5EF15); test: disruptors of C. elegans POS-1 RNA interaction – biochemical, fluorescence polarization, dose response (AID 1964);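 also: purified POS-1 fused to maltose binding protein made in E. coli; potency of compounds blocking POS-1 binding to fluorescent RNA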
T6 sequence (G5EF15 whole entry): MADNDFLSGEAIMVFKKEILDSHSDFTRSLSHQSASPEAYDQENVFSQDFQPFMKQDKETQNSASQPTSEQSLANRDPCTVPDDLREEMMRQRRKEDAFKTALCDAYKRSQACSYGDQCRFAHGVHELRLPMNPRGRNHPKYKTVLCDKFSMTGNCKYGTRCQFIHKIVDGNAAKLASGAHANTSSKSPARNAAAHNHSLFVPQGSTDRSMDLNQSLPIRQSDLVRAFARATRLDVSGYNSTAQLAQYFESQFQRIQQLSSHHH

[11] = antibacterial activity against E. coli NEB5alpha – luminescence, counter-screen for MEX-5/POS-1 RNA-binding inhibitor project, dose response (AID 1959); type: functional
[12] = target: T7, Zinc finger protein mex-5 (Caenorhabditis elegans, UniProt Q9XUB2); test: potency of MEX-5 RNA-binding blockers – biochemical, C. elegans, fluorescence polarization, dose response (AID 1960)
T7 sequence (Q9XUB2 whole entry): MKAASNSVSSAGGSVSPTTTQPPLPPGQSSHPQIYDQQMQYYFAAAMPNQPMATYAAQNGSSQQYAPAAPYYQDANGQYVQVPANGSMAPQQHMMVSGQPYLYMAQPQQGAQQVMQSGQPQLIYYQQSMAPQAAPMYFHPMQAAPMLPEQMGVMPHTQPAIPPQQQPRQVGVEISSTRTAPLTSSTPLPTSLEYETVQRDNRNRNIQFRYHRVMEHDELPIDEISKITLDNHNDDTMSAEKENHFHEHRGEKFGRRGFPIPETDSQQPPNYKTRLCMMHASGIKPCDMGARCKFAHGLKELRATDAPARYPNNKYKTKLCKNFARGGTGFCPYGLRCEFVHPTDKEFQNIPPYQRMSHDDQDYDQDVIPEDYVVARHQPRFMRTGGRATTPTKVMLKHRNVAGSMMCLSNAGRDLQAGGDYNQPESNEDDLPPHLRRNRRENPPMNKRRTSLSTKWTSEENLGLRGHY

[13] = M. tuberculosis H37Rv growth inhibitors, H37Rv strain (AID 1626); type: functional
[14] = viability of uninfected HEp-2 cells – cell-based, HTS, cytotoxicity control for RSV inhibitor project, dose response (AID 2410); type: functional; settings: human respiratory syncytial virus

T3 sequence (Q92731 whole entry): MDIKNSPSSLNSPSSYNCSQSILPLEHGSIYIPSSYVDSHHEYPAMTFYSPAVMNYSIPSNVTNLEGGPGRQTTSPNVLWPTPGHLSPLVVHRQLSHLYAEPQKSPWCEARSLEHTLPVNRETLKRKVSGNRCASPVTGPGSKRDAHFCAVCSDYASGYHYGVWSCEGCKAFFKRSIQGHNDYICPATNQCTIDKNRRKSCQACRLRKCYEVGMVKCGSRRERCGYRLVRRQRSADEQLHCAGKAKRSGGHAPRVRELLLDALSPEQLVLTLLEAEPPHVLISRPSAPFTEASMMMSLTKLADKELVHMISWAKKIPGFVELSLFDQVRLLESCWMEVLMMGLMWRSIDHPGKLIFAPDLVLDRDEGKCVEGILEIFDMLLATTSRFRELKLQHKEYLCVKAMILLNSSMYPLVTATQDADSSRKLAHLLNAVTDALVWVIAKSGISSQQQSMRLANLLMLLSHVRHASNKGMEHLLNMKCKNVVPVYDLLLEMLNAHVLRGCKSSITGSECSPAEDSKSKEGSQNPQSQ
Sequence of 5-hydroxytryptamine receptor 1A (P08908 whole entry): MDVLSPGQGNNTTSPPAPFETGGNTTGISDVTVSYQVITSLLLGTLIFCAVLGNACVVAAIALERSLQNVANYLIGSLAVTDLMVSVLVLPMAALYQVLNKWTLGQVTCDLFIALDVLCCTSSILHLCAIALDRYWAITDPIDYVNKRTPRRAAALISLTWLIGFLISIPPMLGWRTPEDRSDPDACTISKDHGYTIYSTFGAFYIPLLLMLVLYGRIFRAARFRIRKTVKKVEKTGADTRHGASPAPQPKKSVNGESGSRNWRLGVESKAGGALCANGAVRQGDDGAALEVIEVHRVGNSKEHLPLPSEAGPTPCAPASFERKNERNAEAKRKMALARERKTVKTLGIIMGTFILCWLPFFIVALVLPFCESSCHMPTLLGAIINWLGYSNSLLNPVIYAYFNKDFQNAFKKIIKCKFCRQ
Sequence of Ubiquitin carboxyl-terminal hydrolase BAP1 (Q92560 whole entry): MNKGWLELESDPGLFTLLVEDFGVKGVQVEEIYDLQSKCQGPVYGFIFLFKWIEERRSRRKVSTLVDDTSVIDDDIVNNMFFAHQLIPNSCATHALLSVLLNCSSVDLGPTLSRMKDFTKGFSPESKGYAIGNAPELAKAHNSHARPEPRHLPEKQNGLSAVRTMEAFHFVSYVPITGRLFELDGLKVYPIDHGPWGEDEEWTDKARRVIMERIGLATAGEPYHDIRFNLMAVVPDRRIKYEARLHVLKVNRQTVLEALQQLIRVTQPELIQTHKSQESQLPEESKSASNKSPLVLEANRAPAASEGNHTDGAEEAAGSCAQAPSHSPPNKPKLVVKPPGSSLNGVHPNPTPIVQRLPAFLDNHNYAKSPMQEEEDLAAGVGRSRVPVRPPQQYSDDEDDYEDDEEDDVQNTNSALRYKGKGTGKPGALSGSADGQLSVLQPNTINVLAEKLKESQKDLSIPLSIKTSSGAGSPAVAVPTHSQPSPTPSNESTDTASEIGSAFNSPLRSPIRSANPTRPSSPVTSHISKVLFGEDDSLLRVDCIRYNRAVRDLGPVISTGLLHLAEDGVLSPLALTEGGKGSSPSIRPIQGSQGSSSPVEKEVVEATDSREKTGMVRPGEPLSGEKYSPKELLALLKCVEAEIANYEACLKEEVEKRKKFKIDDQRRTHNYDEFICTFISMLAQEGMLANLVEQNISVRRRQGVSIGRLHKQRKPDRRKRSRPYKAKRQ

COc1ccc2nc(NC(=O)CCc3nc(-c4ccccc4F)no3)sc2c1
IC50 [1]: 36.6 µM (not active)

CN(C)c1ccc(-c2nn3c(-c4ccc(Cl)cc4Cl)nnc3s2)cc1
IC50 (Bcl-2-related protein A1 [2]): > 100 µM (not active) | IC50 (Bcl-2-related protein A1 [3]): > 100 µM (not active)

O=C(Nc1ccc(Oc2ccc(Cl)cc2)cc1)Nc1ccc([N+](=O)[O-])cc1
IC50 (NADPH oxidase 1): > 17 µM (not active)

Oc1ccccc1OCCOc1ccccc1OCCOc1ccccc1O
IC50 [4]: 1.48 µM (active)

c1ccc(N2CCN(Cc3cn4cccnc4n3)CC2)cc1
EC50 [5]: > 50 µM (not active)

CCCc1nc2sc3ccccc3c(=O)c2c(=O)n1Cc1ccco1
IC50 (Estrogen receptor beta [6]): 11.6 µM (active) | EC50 [7]: 13.8 µM (active) | IC50 (Estrogen receptor beta [8]): 0.709 µM (not active) | IC50 [9]: 9.92 µM (active)

O=c1c2ccccc2nc(N/N=C/c2ccc(O)cc2)n1O
EC50 [10]: > 300 µM (not active) | EC50 [11]: 14.3 µM (active) | EC50 [12]: > 300 µM (inconclusive)

Cc1cc(-c2ccc(/C=N/n3cnnc3)o2)ccc1Cl
IC50 [13]: > 100 µM (active) | CC50 [14]: > 50 µM (active)
